Experiments:
SARS-CoV-2 nsp13 [1] = molecular target: T1, SARS-CoV-2 nsp13 (Severe acute respiratory syndrome coronavirus 2, UniProt P0DTD1); assay: SARS-CoV-2 nsp13 unwinding-associated activity; type: biochemical; conditions: for Percentage of control, unwinding activity: measured in the presence of the highest tested compound concentration; for IC50: concentration required to inhibit nsp13-associated unwinding activity by 50%, 1 nM nsp13, 1 mM ATP, 750 nM DNA substrate
Method: (§1) The SARS-CoV-2 nsp13 his-tagged was expressed in E. coli BL21 Rosetta 2 cells from a pNIC-ZB (addgene #159614). A purification protocol was adopted from Newman et al.. Terrific Broth media was used to culture the cells at 37 °C and at 200 rpm until 1.6 OD600. Then, protein expression was induced with […] for 16 h at 18 °C, at 200 rpm, and then pelleted and resuspended in lysis buffer (50 mM HEPES pH 7.5, 500 mM NaCl, 5% Glycerol, 10 mM Imidazole, 0.5 mM TCEP, Merck Protease inhibitor cocktail III, 1:500). After sonication and clarification at 15,000× g for 30 min, the crude extract was used for a batch binding of 40 min in a three-dimensional rotating mixer with 5 mL of Ni-sepharose (cytiva) under orbital. Then, the tubes were centrifuged at 700× g at 4 °C for 5 min, and the resin was loaded onto a gravity flow column (econo column BioRad) connected to a BioLogic LP (BioRad). It was subsequently washed (1 mL/min) with a lysis buffer for 40 min and with a wash buffer (50 mM HEPES pH 7.5, 500 mM NaCl, 5% Glycerol, 45 mM Imidazole, 0.5 mM TCEP) for 25 min. A further 10 min wash with a Hi-salt buffer (50 mM HEPES pH 7.5, 1 M NaCl, 5% Glycerol, 0.5 mM TCEP) was performed, followed by another 10 min of wash buffer. Proteins were eluted with the addition of 15 mL of elution buffer (50 mM HEPES pH 7.5, 500 mM NaCl, 5% Glycerol, 300 mM Imidazole, 0.5 mM TCEP). The elution fraction was analyzed for purity by SDS page, and clean fractions were pooled and dialyzed against a desalting buffer containing 25 mM HEPES pH 7.5, 250 mM NaCl, 20% Glycerol, and 0.25 mM TCEP. Proteins were stored at −80 °C.
The SARS-CoV-2 nsp13 unwinding-associated activity was measured in black 384-well plates (PerkinElmer). The reaction mixture, as described in [34], contained 20 mM Tris–HCl pH 7.2. 50 mM NaCl, 2 mM MgCl2, 10 μg/mL of BSA, 180 μM TCEP, 2 μM Hel Capture oligo (5′- […] -3′) (Biomers) 5% DMSO or inhibitor, and 1 nM of purified nsp13. The enzyme was pre-incubated for 10 min with the inhibitor at room temperature, and then reaction was started by adding 1 mM ATP and 750 nM annealed DNA substrate (5′- […]-Cy3-3′. 5′- BHQ-2-[…]-3′) (Biomers). Reaction volume was 40 μL. Compounds SSYA10-001 and Licoflavone C were used as positive controls of inhibition; the reaction lasted for 15 min at 37 °C, and then the products were measured with Victor Nivo (Perkin) at 530/580 nm.

SARS-CoV-2 nsp13 [2] = molecular target: T1, SARS-CoV-2 nsp13; assay: SARS-CoV-2 nsp13 ATPase (NTPase)-associated activity; type: biochemical; conditions: for Percentage of control, NTPase activity: measured in the presence of the highest tested compound concentration
Method: as §1
The SARS-CoV-2 nsp13 helicase-associated activity was measured in a transparent 96-well plate (PerkinElmer), as described in [34]. Briefly, the reaction mixture contained 20 mM Tris–HCl pH 7.2, 50 mM NaCl, 2 mM MgCl2, 10 µg/mL of BSA, 180 µM TCEP, 5% DMSO or inhibitor, and 25 nM of purified nsp13. The reaction was started by adding 400 µM ATP. Total reaction volume was 25 μL. Compound Licoflavone C was used as positive control of inhibition. The reaction lasted for 30 min at 37 °C. […] The products were measured with Victor Nivo (Perkin) at 650 nm.

[3] = concentration required to inhibit nsp13-associated ATPase activity by 50%, 25 nM nsp13, 400 µM ATP

Molecule	Percentage of control, unwinding activity (SARS-CoV-2 nsp13 [1])	Percentage of control, NTPase activity (SARS-CoV-2 nsp13 [2])	IC50 (SARS-CoV-2 nsp13 [1])	IC50 (SARS-CoV-2 nsp13 [2]; [3])	IC50 NTPase (SARS-CoV-2 nsp13 [2]; [3])
nicotinamide adenine dinucleotide [NADH]	100%	100%			
CCO/N=C(\C(=O)N[C@@H]1C(=O)N2C(C(=O)[O-])=C(Sc3nc(-c4cc[n+](C)cc4)cs3)CS[C@H]12)c1nsc(NP(=O)(O)O)n1 [Ceftaroline fosamil]	100%	100%	> 30 µM	> 30 µM	
OC[C@H]1O[C@@H](Oc2cc(O)cc(/C=C/c3ccc(O)cc3)c2)[C@H](O)[C@@H](O)[C@@H]1O [Polydatin]	100%	100%	> 30 µM	> 30 µM	
C=CCn1c(CSc2ccccc2[N+](=O)[O-])n[nH]c1=S [SSYA10-001]			2.3 ± 0.7 µM		
CC(C)=CCc1c(O)cc(O)c2c(=O)cc(-c3ccc(O)cc3)oc12 [Licoflavone C]			8.7 ± 1.3 µM	20.9 ± 0.8 µM	
CC(C)(C)c1cc(NC(=O)NCc2ccccc2Sc2ccc3nnc(-c4ccccc4SCCO)n3c2)n(-c2ccc(O)c(Cl)c2)n1 [PF-03715455]			3.02 ± 0.21 µM	9.26 ± 1.93 µM	
CC(C)(Cc1cccc(CC(=O)NCc2cccc(-c3ccc(O)cc3)c2)c1)NC[C@H](O)c1ccc(O)c(NS(C)(=O)=O)c1 [PF-00610355]		100%	22.4 ± 1.7 µM	> 30 µM	not active

From article PMC9654784, “Targeting SARS-CoV-2 nsp13 Helicase and Assessment of Druggability Pockets: Identification of Two Potent Inhibitors by a Multi-Site In Silico Drug Repurposing Approach” (Molecules, 2022)
